Results: patent publication US20050239806A1, “Pyrrolopyrimidine derivatives and analogs and their use in the treatment and prevention of diseases” (Ambit Biosciences Corporation, priority 2004, published 2005)

Assays:
[1] = target: T1, human EGFR (wildtype), EGFR(DKIN) (Homo sapiens, UniProt P00533); test: Binding of wildtype-EGFR (T7 phage-displayed kinase competition binding)
T1 construct: Kd for EGFR(DKIN); made in house
Source text: (§1) Methods for measuring binding affinities for interactions between small molecules and kinases including FLT3, c-KIT, ABL([…]) [a.k.a. ABL([…])], VEGFR-2 (a.k.a. KDR), and EGFR are described in detail in U.S. application Ser. No. 10/873,835, which is incorporated by reference herein in its entirety. The components of the assays include human kinases expressed as fusions to T7 bacteriophage particles and immobilized ligands that bind to the ATP site of the kinases. […] If the test compound binds the kinase it competes with the immobilized ligand and prevents binding to the solid support. […] The results are read out by quantitating the amount of fusion protein bound to the solid support, which is accomplished by either traditional phage plaque assays or by quantitative PCR (qPCR) using the phage genome as a template. […] The concentration of test molecule that reduces the number of phage bound to the solid support by 50% is equal to the Kd for the interaction between the kinase and the test molecule. Typically, data are collected for twelve concentrations of test compound and, the resultant binding curve is fit to a non-cooperative binding isotherm to calculate Kd. Described in the exemplary assays below is data from binding with varying kinases. […] The term “ND” represents non-determined values. […] The Kd for the interaction between the soluble compound (competitor) molecule and EGFR is equal to the concentration of soluble competitor molecule that causes a 50% reduction in the number of phage recovered in the eluate compared to a control sample lacking soluble competitor.

EGFR (E746-A750del) = target: T2, EGFR (E746-A750del) (Homo sapiens, UniProt P00533, DEL746-750); test: Binding of mutant-EGFR (phage-displayed kinase competition binding)
T2 construct: made in house
Source text: as §1

EGFR (G719C) = target: T3, EGFR (G719C) (Homo sapiens, UniProt P00533, G719C); test: as above
T3 construct: made in house
Source text: as §1

[2] = target: T4, EGFR (L747-E749del, A750P) (Homo sapiens, UniProt P00533, A750P/DEL747-749); test: as above
T4 construct: made in house
Source text: as §1

EGFR (S752-1759del) = target: T5, EGFR (S752-1759del) (Homo sapiens, UniProt P00533, DEL752-759); test: as above
T5 construct: made in house
Source text: as §1

[3] = target: T6, EGFR (L747-T752del, P753S) (Homo sapiens, UniProt P00533, DEL747-752/P753S); test: as above
T6 construct: made in house
Source text: as §1

EGFR (G719S) = target: T7, EGFR (G719S) (Homo sapiens, UniProt P00533, G719S); test: as above
T7 construct: made in house
Source text: as §1

EGFR (L858R) = target: T8, EGFR (L858R) (Homo sapiens, UniProt P00533, L858R); test: as above
T8 construct: made in house
Source text: as §1

[4] = target: T9, EGFR (L747-T751del, Sins) (Homo sapiens, UniProt P00533, DEL747-750/T751S); test: as above
T9 construct: made in house
Source text: as §1

EGFR (L861Q) = target: T10, EGFR (L861Q) (Homo sapiens, UniProt P00533, L861Q); test: as above
T10 construct: made in house
Source text: as §1

[5] = target: T11, EGFR (tyrosine 1173 phosphorylation) in A431 cells (Homo sapiens, UniProt P00533); test: EGFR Autophosphorylation Inhibition Assay in Epidermoid Carcinoma Cell Line A431; assay type: cell-based; conditions: EGF-induced phosphorylation of tyrosine 1173
T11 construct: endogenous in cells; host or cells: A431
Protocol: (§2) Tyrosine 1173 is a major autophosphorylation site resulting from activation of EGFR by epidermal growth factor (EGF). To determine the capacity of a compound to inhibit this phosphorylation activity of EGFR upon itself, the following methodology was used: 4×10^4 A431 cells/well in a 96-well culture plate or 3.6×10^5 A549 cells/well in a 24-well culture plate were cultured overnight at 37° C. in 5% CO2 in low serum culture medium (DMEM supplemented with 0.5% fetal calf serum, 4.500 mg/L glucose and 100 units/ml penicillin-streptomycin). After 16 hours, the cells were pre-incubated in eight serial 3-fold dilutions of test compound (3.3 μM-0.0017 μM) in addition to vehicle control (final concentration on DMSO vehicle was 1%) for two hours. Cells were stimulated by the addition of 5 ng/ml of EGF for five minutes. Cells were then washed with cold phosphate buffered saline (PBS), and incubated for 30 minutes at 4° C. in lysis buffer. Subsequently, the samples were centrifuged at 6000× RCF for 15 minutes, and the level of phosphorylation of EGFR tyrosine 1173 was measured using a sandwich enzyme-linked immunosorbent assay following the manufacturer's recommended protocols (Biosource, Camarillo, Calif.). Total EGFR levels were also measured in the same manner to control for protein level differences. The reported values are those concentrations of compound required to inhibit EGF-induced phosphorylation of tyrosine 1173 by 50%.

[6] = target: T12, EGFR (tyrosine 1173 phosphorylation) in Lung Cancer Cell Line A459 (Homo sapiens, UniProt P00533); test: EGFR Autophosphorylation Inhibition Assay in Lung Cancer Cell Line A459; assay type: cell-based; conditions: EGF-induced phosphorylation of tyrosine 1173
T12 construct: endogenous in cells
Protocol: as §2

T3 sequence (P00533 25-1210 G719C): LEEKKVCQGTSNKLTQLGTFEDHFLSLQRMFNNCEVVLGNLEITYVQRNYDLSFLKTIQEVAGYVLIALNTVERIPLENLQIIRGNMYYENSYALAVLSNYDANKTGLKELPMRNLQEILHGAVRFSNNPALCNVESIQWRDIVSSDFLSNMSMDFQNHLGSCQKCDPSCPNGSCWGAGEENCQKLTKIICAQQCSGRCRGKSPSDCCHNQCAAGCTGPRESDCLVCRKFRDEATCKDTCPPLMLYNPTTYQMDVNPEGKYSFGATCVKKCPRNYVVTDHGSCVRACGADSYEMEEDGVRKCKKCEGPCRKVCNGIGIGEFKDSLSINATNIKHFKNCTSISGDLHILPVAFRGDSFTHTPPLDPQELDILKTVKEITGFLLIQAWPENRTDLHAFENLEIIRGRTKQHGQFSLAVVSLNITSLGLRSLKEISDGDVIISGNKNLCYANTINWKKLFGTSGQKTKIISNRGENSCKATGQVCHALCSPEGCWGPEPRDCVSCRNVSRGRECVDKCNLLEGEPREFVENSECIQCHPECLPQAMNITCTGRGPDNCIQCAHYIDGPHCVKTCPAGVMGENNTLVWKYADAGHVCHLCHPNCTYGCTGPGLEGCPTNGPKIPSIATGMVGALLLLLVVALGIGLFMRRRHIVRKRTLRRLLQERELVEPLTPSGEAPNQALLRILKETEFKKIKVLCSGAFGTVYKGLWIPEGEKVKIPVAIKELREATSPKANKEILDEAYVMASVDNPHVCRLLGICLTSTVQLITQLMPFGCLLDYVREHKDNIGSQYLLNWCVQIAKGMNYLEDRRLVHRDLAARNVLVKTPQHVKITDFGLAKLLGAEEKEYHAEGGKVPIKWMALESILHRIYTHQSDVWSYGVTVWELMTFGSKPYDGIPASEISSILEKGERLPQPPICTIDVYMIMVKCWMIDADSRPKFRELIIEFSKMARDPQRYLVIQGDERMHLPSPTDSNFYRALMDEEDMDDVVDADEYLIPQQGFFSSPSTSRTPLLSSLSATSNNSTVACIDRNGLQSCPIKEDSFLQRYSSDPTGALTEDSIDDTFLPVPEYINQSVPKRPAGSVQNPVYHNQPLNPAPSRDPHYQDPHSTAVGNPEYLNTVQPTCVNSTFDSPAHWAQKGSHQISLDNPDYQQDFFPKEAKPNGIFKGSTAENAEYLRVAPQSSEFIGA
T10 sequence (P00533 25-1210 L861Q): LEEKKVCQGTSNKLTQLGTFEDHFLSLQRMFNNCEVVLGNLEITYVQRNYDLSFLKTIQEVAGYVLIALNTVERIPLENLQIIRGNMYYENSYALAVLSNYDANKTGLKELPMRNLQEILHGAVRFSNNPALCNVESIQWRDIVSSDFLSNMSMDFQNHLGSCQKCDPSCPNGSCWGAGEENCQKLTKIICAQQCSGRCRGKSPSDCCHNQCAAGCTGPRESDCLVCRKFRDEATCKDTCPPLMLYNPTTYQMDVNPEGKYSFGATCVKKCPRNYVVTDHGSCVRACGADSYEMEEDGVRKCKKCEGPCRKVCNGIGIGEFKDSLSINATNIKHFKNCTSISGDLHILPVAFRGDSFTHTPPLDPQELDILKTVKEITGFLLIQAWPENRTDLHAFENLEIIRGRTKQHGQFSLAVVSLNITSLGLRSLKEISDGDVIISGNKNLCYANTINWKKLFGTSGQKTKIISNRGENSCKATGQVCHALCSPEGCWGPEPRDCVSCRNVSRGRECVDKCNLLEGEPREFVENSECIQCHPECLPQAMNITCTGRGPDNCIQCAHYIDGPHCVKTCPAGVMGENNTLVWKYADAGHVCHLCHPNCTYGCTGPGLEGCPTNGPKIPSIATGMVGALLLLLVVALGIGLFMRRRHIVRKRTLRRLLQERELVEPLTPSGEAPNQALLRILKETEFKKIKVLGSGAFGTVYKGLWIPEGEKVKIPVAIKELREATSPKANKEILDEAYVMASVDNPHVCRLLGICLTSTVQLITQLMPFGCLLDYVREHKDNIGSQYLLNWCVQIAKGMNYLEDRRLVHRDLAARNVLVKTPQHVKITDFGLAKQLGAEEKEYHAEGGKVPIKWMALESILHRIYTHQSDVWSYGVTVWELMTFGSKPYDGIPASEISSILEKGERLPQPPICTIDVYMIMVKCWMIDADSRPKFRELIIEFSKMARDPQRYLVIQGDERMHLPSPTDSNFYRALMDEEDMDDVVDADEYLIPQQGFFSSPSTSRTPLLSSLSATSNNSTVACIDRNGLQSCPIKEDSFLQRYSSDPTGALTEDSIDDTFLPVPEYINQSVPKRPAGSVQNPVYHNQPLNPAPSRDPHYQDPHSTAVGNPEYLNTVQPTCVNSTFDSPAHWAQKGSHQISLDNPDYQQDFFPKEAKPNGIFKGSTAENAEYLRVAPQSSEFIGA
T8 sequence (P00533 25-1210 L858R): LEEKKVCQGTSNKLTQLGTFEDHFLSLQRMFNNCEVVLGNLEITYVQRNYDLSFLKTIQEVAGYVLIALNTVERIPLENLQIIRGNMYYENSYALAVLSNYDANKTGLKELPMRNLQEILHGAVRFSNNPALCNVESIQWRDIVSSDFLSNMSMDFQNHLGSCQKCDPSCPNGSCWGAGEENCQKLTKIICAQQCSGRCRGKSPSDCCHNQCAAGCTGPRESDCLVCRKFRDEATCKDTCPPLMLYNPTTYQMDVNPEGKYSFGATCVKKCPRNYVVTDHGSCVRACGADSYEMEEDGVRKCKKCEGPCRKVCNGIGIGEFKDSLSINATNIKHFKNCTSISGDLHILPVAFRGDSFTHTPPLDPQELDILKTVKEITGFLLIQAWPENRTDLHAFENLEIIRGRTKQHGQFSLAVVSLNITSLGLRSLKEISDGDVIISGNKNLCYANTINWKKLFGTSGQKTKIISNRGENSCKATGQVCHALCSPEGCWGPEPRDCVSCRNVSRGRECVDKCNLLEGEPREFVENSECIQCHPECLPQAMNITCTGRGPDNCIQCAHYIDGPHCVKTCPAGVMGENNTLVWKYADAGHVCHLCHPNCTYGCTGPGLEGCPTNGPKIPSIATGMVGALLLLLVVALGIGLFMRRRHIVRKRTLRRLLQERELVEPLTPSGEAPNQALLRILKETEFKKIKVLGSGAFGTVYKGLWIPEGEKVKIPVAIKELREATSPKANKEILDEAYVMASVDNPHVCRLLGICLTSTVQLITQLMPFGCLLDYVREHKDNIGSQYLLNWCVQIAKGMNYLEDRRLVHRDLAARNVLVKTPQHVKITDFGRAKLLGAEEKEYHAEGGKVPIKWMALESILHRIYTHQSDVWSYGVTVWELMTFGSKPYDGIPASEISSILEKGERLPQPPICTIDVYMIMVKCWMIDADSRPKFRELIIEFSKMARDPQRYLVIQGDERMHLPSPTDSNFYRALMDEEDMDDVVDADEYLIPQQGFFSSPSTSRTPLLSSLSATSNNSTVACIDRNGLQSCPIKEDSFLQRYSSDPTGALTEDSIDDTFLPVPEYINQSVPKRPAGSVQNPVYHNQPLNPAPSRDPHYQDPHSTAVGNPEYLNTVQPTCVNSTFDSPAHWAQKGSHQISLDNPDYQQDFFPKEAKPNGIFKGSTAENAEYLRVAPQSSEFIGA
T7 sequence (P00533 25-1210 G719S): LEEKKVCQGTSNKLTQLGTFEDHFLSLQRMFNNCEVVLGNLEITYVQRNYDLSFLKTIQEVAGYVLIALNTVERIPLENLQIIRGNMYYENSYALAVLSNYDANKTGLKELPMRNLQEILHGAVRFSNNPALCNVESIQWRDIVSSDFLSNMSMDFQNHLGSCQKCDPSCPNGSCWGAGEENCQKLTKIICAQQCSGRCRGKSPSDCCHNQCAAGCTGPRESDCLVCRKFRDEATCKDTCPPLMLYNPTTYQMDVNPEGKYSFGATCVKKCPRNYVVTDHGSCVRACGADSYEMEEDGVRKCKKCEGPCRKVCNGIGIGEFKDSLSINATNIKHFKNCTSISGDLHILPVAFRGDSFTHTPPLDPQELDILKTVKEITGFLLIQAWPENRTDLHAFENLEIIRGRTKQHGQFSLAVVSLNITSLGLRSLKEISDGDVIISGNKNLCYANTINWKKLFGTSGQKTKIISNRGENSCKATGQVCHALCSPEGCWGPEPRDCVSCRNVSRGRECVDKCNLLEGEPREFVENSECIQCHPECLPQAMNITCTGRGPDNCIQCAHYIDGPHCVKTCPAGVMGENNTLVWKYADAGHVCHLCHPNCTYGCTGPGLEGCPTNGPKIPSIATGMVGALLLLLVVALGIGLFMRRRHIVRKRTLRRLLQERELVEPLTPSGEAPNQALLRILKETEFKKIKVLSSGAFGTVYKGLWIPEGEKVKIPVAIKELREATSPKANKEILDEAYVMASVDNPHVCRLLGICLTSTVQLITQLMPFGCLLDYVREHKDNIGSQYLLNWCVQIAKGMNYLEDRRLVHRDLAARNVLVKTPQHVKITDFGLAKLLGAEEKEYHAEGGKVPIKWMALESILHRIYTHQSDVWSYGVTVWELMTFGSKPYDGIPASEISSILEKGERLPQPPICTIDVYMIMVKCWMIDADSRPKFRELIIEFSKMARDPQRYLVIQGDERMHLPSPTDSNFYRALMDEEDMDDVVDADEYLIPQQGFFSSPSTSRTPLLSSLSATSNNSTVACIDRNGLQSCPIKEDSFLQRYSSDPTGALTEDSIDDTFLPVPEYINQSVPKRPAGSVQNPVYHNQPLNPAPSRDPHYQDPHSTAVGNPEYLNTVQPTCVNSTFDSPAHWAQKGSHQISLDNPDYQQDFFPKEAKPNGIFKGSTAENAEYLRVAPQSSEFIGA
T9 sequence (P00533 with tags, fused parts or gaps DEL747-750/T751S limits assumed): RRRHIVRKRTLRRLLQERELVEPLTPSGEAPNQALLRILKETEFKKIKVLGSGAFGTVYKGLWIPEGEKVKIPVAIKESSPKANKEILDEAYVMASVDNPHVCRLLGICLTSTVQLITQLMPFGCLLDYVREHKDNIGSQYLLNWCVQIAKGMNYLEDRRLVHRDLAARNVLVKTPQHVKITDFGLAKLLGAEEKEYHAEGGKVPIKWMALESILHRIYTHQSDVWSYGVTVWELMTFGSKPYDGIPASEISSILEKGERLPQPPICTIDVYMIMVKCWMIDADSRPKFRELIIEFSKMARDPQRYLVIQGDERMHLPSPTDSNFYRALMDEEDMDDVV

Row | SMILES | Kd [1] [nM] | Kd (EGFR (E746-A750del)) [nM] | Kd (EGFR (G719C)) [nM] | Kd [2] [nM] | Kd (EGFR (S752-1759del)) [nM] | Kd [3] [nM] | Kd (EGFR (G719S)) [nM] | Kd (EGFR (L858R)) [nM] | Kd [4] [nM] | Kd (EGFR (L861Q)) [nM] | IC50 [5] [nM] | IC50 [6] [nM]
1 | Oc1ccc(-c2cc3c(Sc4ccccc4)ncnc3[nH]2)cc1 [Compound L2] | < 100 | < 100 | < 100 | < 100 | < 100 | < 100 | < 100 | < 100 | < 100 | < 100 | < 100 | 100 to 1000
2 | Clc1ccc(Sc2ncnc3c2[nH]c2ccccc23)cc1Cl [Compound K5] | < 100 | < 100 | < 100 | < 100 | < 100 | < 100 | < 100 | < 100 | < 100 | 100 to 1000 | 100 to 1000 | 100 to 1000
3 | Oc1ccc(-c2cc3c(Oc4cccc(Br)c4)ncnc3[nH]2)cc1 [Compound E3] | < 100 | < 100 | < 100 | < 100 | < 100 | < 100 | < 100 | < 100 | < 100 | < 100 | < 100 | 100 to 1000
